Source: patent US20110263454A1, “Methods of Identifying Functional Characteristics of Promoters, Transcription Modifying Proteins and Transcription Modulating Agents” (Salk Institute for Biological Studies, priority 2008, published 2011)

Assays:
hPOMC promoter = test: NHR-promoter luciferase screen, hPOMC promoter; assay type: cell-based, human; details: for Luc. act., normalized to lacZ / Normalized Luc. act., normalized to control: hPOMC promoter, HR/ligand component; for hPOMC promoter reporter activity: transcription factor +/- ligand, control = 1.00; for luciferase/LacZ, hPOMC (selected results): hPOMC promoter-luciferase, NHR +/- ligand, control = 1.0
Protocol: (§1) The use, feasibility, and reproducibility of the functional NHR-promoter screen in a 48-well format have been tested validated. Briefly, there were co-expressed 50 ng of each NHR/NHR homodimer or NHR/RXR heterodimer with 100 ng promoter/luciferase construct and 50 ng of LacZ (as a control for transfection efficiency) in CV-1 cells using Fugene HD (Roche) as a transfection reagent (alternatively or additionally, a CMV-YFP construct can be used as a transfection control). Each of the nuclear hormone receptors that were used in these experiments was cloned into a pcDNA3.1 vector and comprised a C-terminally linked V5H6 tag. Twenty-four hours after transfection, appropriate ligands were added, where applicable, (see Table 5 for various ligands and concentrations and after 48 hrs, samples were assayed for luciferase and LacZ activity. To measure for luciferase activity 15 ul of sample was added to 30 ul of luciferase buffer (20 mM tricine, 1.07 mM MgCarbonate, 2.67 mM MgSulfate, 0.1 mM Naz-EDTA, 5 mM DTT, 5 mM ATP, 0.15 mg/ml CoA, 0.5 mM Luciferin), mixed briefly, and run in a Perkin Elmer Victor 5 luminometer. Thus, the functional NHR-promoter screen was used to observe the transcriptional activity of 29 promoters from various physiological pathways including inflammation, lipid and sugar metabolism, cholesterol transport, xenobiotic metabolism, and circadian rhythm.
(§2) The promoters that facilitate transcription of the indicated gene products that were tested using the protocols described herein are listed in the first row of the table. The nuclear hormone receptors and, where applicable, ligands that were assayed for their transcriptional effects on the promoters are listed in the first column of the table. The data represent the luciferase activity of each sample normalized to both the lacZ activity of that sample and to a control, e.g., no NHR or ligand, as customary in the art. As described previously, these normalizations allow the transcriptional activity of each reporter cell to be compared to other samples.
(§3) Tables 7-40 show the transcriptional effects of the hormone receptors, and, where applicable, ligands (orphan receptors are screened without ligand), on each individual promoter. […] The control data of each table are shown in their last rows.

mGhrelin promoter = test: NHR-promoter luciferase screen, mGhrelin promoter; assay type: cell-based, mouse; details: for Luc. act., normalized to lacZ / Normalized Luc. act., normalized to control: Table 8, mGhrelin; for Results of assays of transcription factor (+/- ligand) with mGhrelin: Table 6d, luciferase activity relative to control (control = 1.00); for luciferase/LacZ, mGhrelin (selected results): mGhrelin promoter-luciferase, NHR +/- ligand, control = 1.0
Protocol: as §1, §2, §3

mLeptin promoter = test: NHR-promoter luciferase screen, mLeptin promoter; assay type: cell-based, mouse; details: for Luc. act., normalized to lacZ / Normalized Luc. act., normalized to control: Table 7, mLeptin; for Results of assays of transcription factor (+/- ligand) with mLeptin: Table 6d, luciferase activity relative to control (control = 1.00); for luciferase/LacZ, mLeptin (selected results): mLeptin promoter-luciferase, NHR +/- ligand, control = 1.0
Protocol: as §1, §2, §3

mUCP3 promoter = test: NHR-promoter luciferase screen, mUCP3 promoter; assay type: cell-based, mouse; details: for Normalized Luc. act., normalized to control / Luc. act., normalized to lacZ: mUCP3 promoter reporter; for Normalized Luc. act., normalized to control: HR without or with its ligand, relative to control; for Luc. act., normalized to lacZ: hormone receptor (HR) without or with its ligand; for mUCP3 promoter reporter activity: transcription factor +/- ligand, control = 1.00
Protocol: as §1, §2, §3

hMDR1 promoter = test: NHR-promoter luciferase screen, hMDR1 promoter; assay type: cell-based, human; details: for Luc. act., normalized to lacZ / Normalized Luc. act., normalized to control: MDR1 promoter, HR/ligand component; for hMDR1 promoter reporter activity: transcription factor +/- ligand, control = 1.00
Protocol: as §1, §2, §3

| Substance | Luc. act., normalized to lacZ (hPOMC promoter) | Normalized Luc. act., normalized to control (hPOMC promoter) | hPOMC promoter reporter activity (hPOMC promoter) | Luc. act., normalized to lacZ (mGhrelin promoter) | Normalized Luc. act., normalized to control (mGhrelin promoter) | Results of assays of transcription factor (+/- ligand) with mGhrelin (mGhrelin promoter) | Luc. act., normalized to lacZ (mLeptin promoter) | Normalized Luc. act., normalized to control (mLeptin promoter) | Results of assays of transcription factor (+/- ligand) with mLeptin (mLeptin promoter) | Normalized Luc. act., normalized to control (mUCP3 promoter) | Luc. act., normalized to lacZ (mUCP3 promoter) | mUCP3 promoter reporter activity (mUCP3 promoter) | Luc. act., normalized to lacZ (hMDR1 promoter) | Normalized Luc. act., normalized to control (hMDR1 promoter) | hMDR1 promoter reporter activity (hMDR1 promoter) | luciferase/LacZ, hPOMC (selected results) (hPOMC promoter) | luciferase/LacZ, mGhrelin (selected results) (mGhrelin promoter) | luciferase/LacZ, mLeptin (selected results) (mLeptin promoter) |
| --- | --- | --- | --- | --- | --- | --- | --- | --- | --- | --- | --- | --- | --- | --- | --- | --- | --- | --- |
| VDR: Vitamin D Receptor (NR1I1), cDNA driver | 3.8 | 0.9 | 0.90 | 76.6 | 1.5 | 1.47 | 2.6 | 0.9 | 0.90 | 1.5 | 1.0 | 1.49 | 0.3 | 0.9 | 0.90 |  |  |  |
| PNR: Photoreceptor-specific Nuclear Receptor (NR2E3), cDNA driver | 1.5 | 0.3 | 0.34 | 32.4 | 0.6 | 0.62 | 2.0 | 0.7 | 0.68 | 0.8 | 0.5 | 0.79 | 0.2 | 0.5 | 0.52 |  |  |  |
| GR: Glucocorticoid Receptor (NR3C1), cDNA driver | 0.7 | 0.2 | 0.16 | 14.3 | 0.3 | 0.27 | 1.7 | 0.6 | 0.58 | 0.9 | 0.59 | 0.88 | 0.1 | 0.4 | 0.39 | 0.2 | 0.3 | 0.6 |
| NR4a1: NR4a1 (NR4A1; NUR77), nuclear hormone receptor cDNA driver | 15.3 | 3.6 | 3.57 | 54.5 | 1.0 | 1.04 | 2.3 | 0.8 | 0.80 | 2.1 | 1.40 | 2.07 | 0.4 | 1.3 | 1.29 | 3.6 | 1.0 | 0.8 |
| ERR1: Estrogen Related Receptor α (NR3B1, ERRa), cDNA driver | 2.7 | 0.6 | 0.63 | 81.4 | 1.6 | 1.56 | 2.6 | 0.9 | 0.88 | 1.5 | 1.0 | 1.47 | 0.4 | 1.2 | 1.20 |  |  |  |
| PPARg: Peroxisome proliferator activated receptor γ (NR1C3), cDNA driver | 2.8 | 0.6 | 0.65 | 93.9 | 1.8 | 1.80 | 2.9 | 1.0 | 1.00 | 1.8 | 1.2 | 1.83 | 0.3 | 0.8 | 0.83 | 0.6 | 1.8 | 1.0 |
| LXRa: Liver X Receptor α (NR1H3), cDNA driver | 6.8 | 1.6 | 1.58 | 56.7 | 1.1 | 1.08 | 1.9 | 0.7 | 0.65 | 1.6 | 1.1 | 1.58 | 0.2 | 0.5 | 0.51 |  |  |  |
| RXRa: Retinoic X Receptor α (NR2B1), cDNA driver | 2.6 | 0.6 | 0.61 | 57.4 | 1.1 | 1.10 | 2.3 | 0.8 | 0.77 | 1.3 | 0.9 | 1.27 | 0.2 | 0.5 | 0.51 |  |  |  |
| PPARa: Peroxisome proliferator activated receptor α (NR1C1), cDNA driver | 2.4 | 0.6 | 0.57 | 56.2 | 1.1 | 1.07 | 2.4 | 0.8 | 0.81 | 2.1 | 1.5 | 2.15 | 0.2 | 0.5 | 0.51 |  |  |  |
| SF-1: Steroidogenic Factor 1 (NR5A1, SF1), cDNA driver | 13.1 | 3.1 | 3.06 | 273.2 | 5.2 | 5.23 | 4.7 | 1.6 | 1.60 | 5.5 | 3.7 | 5.46 | 0.7 | 2.4 | 2.36 |  |  |  |
| AR: Androsterone Receptor (NR3C4), cDNA driver | 1.8 | 0.4 | 0.42 | 39.2 | 0.8 | 0.75 | 2.5 | 0.8 | 0.84 | 2.5 | 1.69 | 2.50 | 0.2 | 0.6 | 0.60 |  |  |  |
| TLX: Tailless (homolog of drosophila) (NR2E1), cDNA driver | 2.6 | 0.6 | 0.60 | 86.6 | 1.7 | 1.66 | 2.6 | 0.9 | 0.89 | 1.1 | 0.8 | 1.11 | 0.2 | 0.7 | 0.70 |  |  |  |
